According to US20260183407A1, “DYRK/CLK PROTACS AND USES THEREOF” (Arizona Board of Regents on Behalf of the University of …, priority 2022, published 2026):

What was measured:
DYRK1A [1] = biological target: T1, DYRK1A (Homo sapiens, UniProt Q13627); experiment: HiBiT split luciferase assay of targeted degradation of DYRK1A in Flp-In T-REx 293 cells; type: cell-based; details: 300 nM compound, 24 h, HiBiT-tagged DYRK1A in Flp-In T-REx 293 cells, normalized to vehicle; read-out: Relative Degradation at 300 nM DYRK1A
T1 construct: purchased Eurofins; host or cells: E. coli BL21-derived (T7 phage display) or HEK-293
Description: The Flp-In T-REx 293 Cell Line and the pcDNA5/FRT/TO vector (Invitrogen) were used to generate stable cell clones for tetracyclin-inducible expression of DYRK1A and DYRK1B. These cells contain a single stably integrated Flp recognition target (FRT) site, which allows for site-specific integration of the expression cassette by the Flp (Flippase) recombinase. DYRK1 constructs were designed to contain a C-terminal HiBiT tag for quantitative detection of HiBiT-tagged proteins in cellular lysates with the help a split luciferase assay (Nano-Glo HiBiT Lytic Detection System, Promega). To monitor the targeted degradation of DYRK1A or DYRK1B, cells were seeded in 96-well plates (10,000 cells/per well) and treated with doxycyclineinal concentration 2 μg/ml) to induce DYRK1 expression. Compounds with presumed PROTAC activity were administered 24 h after seeding. After further incubation for 24 h, cells were grossly and microscopically inspected for overt toxicity. Cells were lysed in 100 μL ice-cold passive lysis buffer (PLB, Promega) by orbital shaking (30 min on ice) before lysates were centrifuged in PCR tube (20 min 20,000 g, RT). A 10 μl aliquot of the supernatant was subjected to the HiBiT lytic assay. Luminescence was quantified in an Orion Microplate luminometer (Berthold Detection System, Germany). All compounds were tested in duplicate or triplicate wells (technical replicates) and at least two independent experiments. Relative degradation was calculated by normalization to vehicle-treated control samples.

DYRK1A [2] = biological target: T1, DYRK1A; experiment: KdELECT kinase binding assay (Eurofins), DYRK1A; details: 11-point 3-fold dilution series, qPCR readout; read-out: Binding Affinity (Kd) DYRK1A
Experimental: (§1) KDs were obtained from Eurofins who used the following procedure: Kinase tagged T7 phase strains were prepared in an E. coli host derived from the BL21 strain. E. coli were grown to log-phase and infected with T7 phage and incubated with shaking at 32° C. until lysis. The lysates were centrifuged and filtered to remove cell debris. The remaining kinases were produced in HEK-293 cells and subsequently tagged with DNA for qPCR detection. Streptavidin-coated magnetic beads were treated with biotinylated small molecule ligands for 30 minutes at room temperature to generate affinity resins for kinase assays. The liganded beads were blocked with excess biotin and washed with locking buffer (SeaBlock (Pierce), 1% BSA, 0.05% Tween 20, 1 mM DTT) to remove unbound ligand and to reduce non-specific binding. Binding reactions were assembled by combining kinases, liganded affinity beads, and test compounds in 1× binding buffer (20% SeaBlock, 0.17× PBS, 0.05% Tween 20, 6 mM DTT). Test compounds were prepared as 111X stocks in 100% DMSO. Kds were determined using a 11-poin 3-fold compound dilution series with three DMSO control points. All compounds for Kd measurements are distributed by acoustic transfer (non-contact dispensing) in 100% DMSO. The compounds were then diluted directly into the assays such that the final concentration of DMSO was 0.9%. All reactions performed in polypropylene 384-well plate. Each was a final volume of 0.02 mL. The assay plates were incubated at room temperature with shaking for 1 hour and the affinity beads were washed with wash buffer (1×PBS, 0.05% Tween 20). The beads were then resuspended in elution buffer (1X PBS, 0.05% Tween 20, 0.5 µM nonbiotinylated affinity ligand) and incubated at room temperature with shaking for 30 minutes. The kinase concentration in the eluates was measured by qPCR.

DYRK1B = biological target: T2, DYRK1B (Homo sapiens, UniProt Q9Y463); experiment: KdELECT kinase binding assay (Eurofins), DYRK1B; details: 11-point 3-fold dilution series, qPCR readout; read-out: Binding Affinity (Kd) DYRK1B
T2 construct: purchased Eurofins; host or cells: E. coli BL21-derived (T7 phage display) or HEK-293
T2 sequence (Q9Y463 whole entry, species assumed): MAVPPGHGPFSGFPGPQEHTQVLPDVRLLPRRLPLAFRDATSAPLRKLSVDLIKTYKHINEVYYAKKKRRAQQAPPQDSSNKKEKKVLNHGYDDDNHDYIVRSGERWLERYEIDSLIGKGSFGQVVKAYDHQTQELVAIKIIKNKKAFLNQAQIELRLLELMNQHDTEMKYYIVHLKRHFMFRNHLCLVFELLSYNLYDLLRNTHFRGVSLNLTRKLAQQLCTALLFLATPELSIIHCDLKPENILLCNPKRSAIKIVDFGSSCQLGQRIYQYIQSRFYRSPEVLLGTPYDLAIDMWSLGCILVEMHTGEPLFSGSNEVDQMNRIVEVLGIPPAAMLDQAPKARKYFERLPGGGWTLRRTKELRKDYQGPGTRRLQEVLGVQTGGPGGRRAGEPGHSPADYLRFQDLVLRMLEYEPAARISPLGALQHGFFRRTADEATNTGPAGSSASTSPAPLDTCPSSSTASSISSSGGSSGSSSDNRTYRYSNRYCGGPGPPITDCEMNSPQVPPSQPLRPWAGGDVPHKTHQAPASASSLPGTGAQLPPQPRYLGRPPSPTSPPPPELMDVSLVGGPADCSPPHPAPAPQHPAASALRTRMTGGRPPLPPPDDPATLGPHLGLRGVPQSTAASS
Experimental: as §1

Molecule Cc1nc2ccc(-c3ccnc(N)c3)nc2n1-c1ccc(N2CCN(CCOCCOCCOCCC(=O)NC3CN(c4ccc5c(c4)C(=O)N(C4CCC(=O)NC4=O)C5=O)C3)CC2)c(F)c1 (stereo not drawn) [Compound 8, 3-(2-(2-(2-(4-(4-(5-(2-aminopyridin-4-yl)-2-methyl-3H-imidazo[4,5-b]pyridin-3-yl)-2-fluorophenyl)piperazin-1-yl)ethoxy)ethoxy)ethoxy)-N-(1-(2-(2,6-dioxopiperidin-3-yl)-1,3-dioxoisoindolin-5-yl)azetidin-3-yl)propanamide] has an inhibition at 0.3 µM (DYRK1A [1]) of less than 30% and a Kd (DYRK1A [2]) of less than 10 nM.

Cc1nc2ccc(-c3ccnc(N)c3)nc2n1-c1cc(F)c(N2CC3(CN(CC#Cc4ccc(N5CCC(C(=O)N6CCC(n7cc(CNc8cccc9c8C(=O)N(C8CCC(=O)NC8=O)C9=O)cn7)CC6)CC5)nc4)C3)C2)c(F)c1 (stereo not drawn) [Compound 40, 4-(((1-(1-(1-(5-(3-(6-(4-(5-(2-aminopyridin-4-yl)-2-methyl-3H-imidazo[4,5-b]pyridin-3-yl)-2,6-difluorophenyl)-2,6-diazaspiro[3.3]heptan-2-yl)prop-1-yn-1-yl)pyridin-2-yl)piperidine-4-carbonyl)piperidin-4-yl)-1H-pyrazol-4-yl)methyl)amino)-2-(2,6-dioxopiperidin-3-yl)isoindoline-1,3-dione] was tested, and the Kd (DYRK1A [2]) was less than 10 nM and the Kd (DYRK1B) was 10 to 100 nM.

With Cc1nc2ccc(-c3ccnc(N)c3)nc2n1-c1ccc(N2CCN(CC#Cc3ccc(N4CCC(O)(C(=O)N5CCC(n6cc(CNc7cccc8c7C(=O)N(C7CCC(=O)NC7=O)C8=O)cn6)CC5)CC4)nc3)CC2)c(F)c1 (stereo not drawn) [Compound 33, 4-(((1-(1-(1-(5-(3-(4-(4-(5-(2-aminopyridin-4-yl)-2-methyl-3H-imidazo[4,5-b]pyridin-3-yl)-2-fluorophenyl)piperazin-1-yl)prop-1-yn-1-yl)pyridin-2-yl)-4-hydroxypiperidine-4-carbonyl)piperidin-4-yl)-1H-pyrazol-4-yl)methyl)amino)-2-(2,6-dioxopiperidin-3-yl)isoindoline-1,3-dione] the inhibition at 0.3 µM (DYRK1A [1]) was greater than 60%.

COc1cc(-n2c(C)nc3ccc(-c4ccnc(N)c4)nc32)ccc1N1CCN(CCC#Cc2ccc(N3CCC(C(=O)N4CCC(n5cc(CNc6cccc7c6C(=O)N(C6CCC(=O)NC6=O)C7=O)cn5)CC4)CC3)nc2)CC1 (stereo not drawn) [Compound 38, 4-(((1-(1-(1-(5-(4-(4-(4-(5-(2-aminopyridin-4-yl)-2-methyl-3H-imidazo[4,5-b]pyridin-3-yl)-2-methoxyphenyl)piperazin-1-yl)but-1-yn-1-yl)pyridin-2-yl)piperidine-4-carbonyl)piperidin-4-yl)-1H-pyrazol-4-yl)methyl)amino)-2-(2,6-dioxopiperidin-3-yl)isoindoline-1,3-dione] showed a Kd (DYRK1A [2]) of less than 10 nM and a Kd (DYRK1B) of 10 to 100 nM.

With Cc1nc2ccc(-c3ccnc(N)c3)nc2n1-c1ccc(N2CCN(C(=O)CN3CCC(CC(=O)N4CCC(n5cc(CNc6cccc7c6C(=O)N(C6CCC(=O)NC6=O)C7=O)cn5)CC4)CC3)CC2)c(F)c1 (stereo not drawn) [Compound 17, 4-(((1-(1-(2-(1-(2-(4-(4-(5-(2-aminopyridin-4-yl)-2-methyl-3H-imidazo[4,5-b]pyridin-3-yl)-2-fluorophenyl)piperazin-1-yl)-2-oxoethyl)piperidin-4-yl)acetyl)piperidin-4-yl)-1H-pyrazol-4-yl)methyl)amino)-2-(2,6-dioxopiperidin-3-yl)isoindoline-1,3-dione] the inhibition at 0.3 µM (DYRK1A [1]) was less than 30% and the Kd (DYRK1A [2]) was less than 10 nM.

Work on Cc1nc2ccc(-c3ccnc(N)c3)nc2n1-c1cc(F)c(N2CCN(C3CN(CC#Cc4ccc(N5CCC(C(=O)N6CCC(n7cc(CNc8cccc9c8C(=O)N(C8CCC(=O)NC8=O)C9=O)cn7)CC6)CC5)nc4)C3)CC2)c(F)c1 (stereo not drawn) [Compound 39, 4-(((1-(1-(1-(5-(3-(3-(4-(4-(5-(2-aminopyridin-4-yl)-2-methyl-3H-imidazo[4,5-b]pyridin-3-yl)-2,6-difluorophenyl)piperazin-1-yl)azetidin-1-yl)prop-1-yn-1-yl)pyridin-2-yl)piperidine-4-carbonyl)piperidin-4-yl)-1H-pyrazol-4-yl)methyl)amino)-2-(2,6-dioxopiperidin-3-yl)isoindoline-1,3-dione] yielded a Kd (DYRK1A [2]) of less than 10 nM and a Kd (DYRK1B) of less than 10 nM.

For Cc1nc2ccc(-c3ccnc(N)c3)nc2n1-c1ccc(N2CCN(C(=O)CCCCCN3CCN(Cc4ccc(CNc5cccc6c5CN(C5CCC(=O)NC5=O)C6=O)cc4)CC3)CC2)c(F)c1 (stereo not drawn) [Compound 15, 3-(4-((4-((4-(6-(4-(4-(5-(2-aminopyridin-4-yl)-2-methyl-3H-imidazo[4,5-b]pyridin-3-yl)-2-fluorophenyl)piperazin-1-yl)-6-oxohexyl)piperazin-1-yl)methyl)benzyl)amino)-1-oxoisoindolin-2-yl)piperidine-2,6-dione], the inhibition at 0.3 µM (DYRK1A [1]) was less than 30% and the Kd (DYRK1A [2]) was less than 10 nM.

In the case of Cc1nc2ccc(-c3ccnc(N)c3)nc2n1-c1ccc(N2CCN(CCOCCOCCOCCC(=O)N3CCN(c4ccc5c(c4)C(=O)N(C4CCC(=O)NC4=O)C5=O)CC3)CC2)c(F)c1 (stereo not drawn) [Compound 9, 5-(4-(3-(2-(2-(2-(4-(4-(5-(2-aminopyridin-4-yl)-2-methyl-3H-imidazo[4,5-b]pyridin-3-yl)-2-fluorophenyl)piperazin-1-yl)ethoxy)ethoxy)ethoxy)propanoyl)piperazin-1-yl)-2-(2,6-dioxopiperidin-3-yl)isoindoline-1,3-dione], the inhibition at 0.3 µM (DYRK1A [1]) is reported as less than 30% and the Kd (DYRK1A [2]) is reported as less than 10 nM.

Cc1nc2ccc(-c3ccnc(N)c3)nc2n1-c1cc(F)c(N2CCN(CC#Cc3ccc(N4CCC(C(=O)N5CCC(n6cc(COc7ccc(C8CCC(=O)NC8=O)cc7)cn6)CC5)CC4)nc3)CC2)c(F)c1 (stereo not drawn) [Compound 34, 3-(4-((1-(1-(1-(5-(3-(4-(4-(5-(2-aminopyridin-4-yl)-2-methyl-3H-imidazo[4,5-b]pyridin-3-yl)-2,6-difluorophenyl)piperazin-1-yl)prop-1-yn-1-yl)pyridin-2-yl)piperidine-4-carbonyl)piperidin-4-yl)-1H-pyrazol-4-yl)methoxy)phenyl)piperidine-2,6-dione] showed a Kd (DYRK1A [2]) of less than 10 nM and a Kd (DYRK1B) of less than 10 nM.

For Cc1nc2ccc(-c3ccnc(N)c3)nc2n1-c1cc(F)c(N2C[C@@H](C)N(CC#Cc3ccc(N4CCC(C(=O)N5CCC(n6cc(CNc7cccc8c7C(=O)N(C7CCC(=O)NC7=O)C8=O)cn6)CC5)CC4)nc3)[C@@H](C)C2)c(F)c1 (stereo partly drawn) [Compound 37, 4-(((1-(1-(1-(5-(3-((2S,6R)-4-(4-(5-(2-aminopyridin-4-yl)-2-methyl-3H-imidazo[4,5-b]pyridin-3-yl)-2,6-difluorophenyl)-2,6-dimethylpiperazin-1-yl)prop-1-yn-1-yl)pyridin-2-yl)piperidine-4-carbonyl)piperidin-4-yl)-1H-pyrazol-4-yl)methyl)amino)-2-(2,6-dioxopiperidin-3-yl)isoindoline-1,3-dione], the Kd (DYRK1A [2]) was less than 10 nM and the Kd (DYRK1B) was 10 to 100 nM.

For Cc1nc2ccc(-c3ccnc(N)c3)nc2n1-c1cc(F)c(N2CCN(C3CCN(CC#Cc4ccc(N5CCC(C(=O)N6CCC(n7cc(CNc8cccc9c8C(=O)N(C8CCC(=O)NC8=O)C9=O)cn7)CC6)CC5)nc4)CC3)CC2)c(F)c1 (stereo not drawn) [Compound 36, 4-(((1-(1-(1-(5-(3-(4-(4-(4-(5-(2-aminopyridin-4-yl)-2-methyl-3H-imidazo[4,5-b]pyridin-3-yl)-2,6-difluorophenyl)piperazin-1-yl)piperidin-1-yl)prop-1-yn-1-yl)pyridin-2-yl)piperidine-4-carbonyl)piperidin-4-yl)-1H-pyrazol-4-yl)methyl)amino)-2-(2,6-dioxopiperidin-3-yl)isoindoline-1,3-dione], the Kd (DYRK1A [2]) was less than 10 nM and the Kd (DYRK1B) was less than 10 nM.
